Test results: US9884043B2, “RORgammaT inhibitors” (Merck Sharp & Dohme Corp., priority 2011, dated 2018)

molecular target: T1, 6His(GST)RORgamma-LBD (Homo sapiens, UniProt P51449); assay: TR-FRET assay (Protocol A), RORgamma-LBD / SRC1_2 co-activator peptide interaction; format: biochemical; details: SRC1_2 peptide 0.1 μM, RORgamma-LBD 10 nM, overnight incubation at 4° C.
T1 construct: the applied RORgamma-LBD contains a 6-His and GST tag; GST (N); made in house; host or cells: baculovirus-infected Sf-21 insect cells
T1 sequence (P51449 269-508 limits assumed): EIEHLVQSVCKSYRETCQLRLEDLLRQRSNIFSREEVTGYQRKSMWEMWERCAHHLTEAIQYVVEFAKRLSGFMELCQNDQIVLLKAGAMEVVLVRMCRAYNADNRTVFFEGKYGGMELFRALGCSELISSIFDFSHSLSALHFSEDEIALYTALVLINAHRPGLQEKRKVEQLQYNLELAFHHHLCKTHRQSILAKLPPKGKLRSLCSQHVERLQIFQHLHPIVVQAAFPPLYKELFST
Text: Activation of RORgammaT activity can be measured using e.g. biochemical TR-FRET assay. In such an assay, interaction of cofactor-derived peptides with human RORgammaT-Ligand Binding Domain (LBD) can be measured.
To identify novel antagonists of RORgammaT, an assay was developed which employs the interaction of RORgammaT with its co-activator peptide SRC1_2. […] The assay was run following three slightly different protocols, i.e. Protocol A, Protocol B, and Protocol C, which are described below.
TR-FRET Assay (Protocol A)
The 6His(GST)RORgamma-LBD was expressed and purified from baculovirus infected Sf-21 insect cells (Bac-to-BAC, Invitrogen) and purified using glutathione sepharose chromatography (GE healthcare). Biotin and His function as anchoring points for streptavidin-allophycocyanin (Strep-APC, Perkin Elmer, C130-100) and anti-His-Europium Cryptate (Perkin Elmer, AD0111), respectively. Since energy transfer between the streptavidin and His-coupled labels APC and europium cryptate can only take place when these labels are in close proximity, measurement of energy transfer in a mixture of biotinylated peptide, His-GR-LBD, streptavidin-APC and anti-His-Europium Cryptate will be indicative for RORy-LBD/peptide binding. […] Changes in peptide binding caused by dose-curves of compounds added to the reaction mixture (DMSO concentration 0.1%), can likewise be monitored.

First: O=C(O)c1ccc(-c2nn(C(=O)c3c(Cl)cccc3Cl)c3c(F)cccc23)cc1 [Example 3, 4-(1-(2,6-dichlorobenzoyl)-7-fluoro-1H-indazol-3-yl)benzoic acid]
Second: O=C(O)c1ccc(-c2nn(C(=O)c3c(Cl)cccc3Cl)c3ccccc23)cc1 [Example 1, 4-(1-(2,6-dichlorobenzoyl)-1H-indazol-3-yl)benzoic acid]
The EC50 of the first is 1.7-fold higher: 18.6 nM for the first, 10.7 nM for the second.

First: O=C(O)c1ccc(-c2nn(C(=O)c3ccccc3Br)c3ccccc23)cc1 [Example 11B, 4-(1-(2-bromobenzoyl)-1H-indazol-3-yl)benzoic acid]
Second: O=C(O)c1ccc(-c2nn(C(=O)c3c(Cl)cccc3Br)c3ccccc23)cc1 [Example 11E, 4-(1-(2-bromo-6-chlorobenzoyl)-1H-indazol-3-yl)benzoic acid]
The EC50 of the first is 1.7-fold higher: 44.7 nM for the first, 26.9 nM for the second. The second is the more potent here.

Compared with `O=C(O)c1ccc(-c2nn(S(=O)(=O)c3ccccc3Cl)c3ccncc23)cc1` [Example 16, 4-(1-(2-chlorophenylsulfonyl)-1H-pyrazolo[4,3-c]pyridin-3-yl)benzoic acid], `O=C(O)c1ccc(-c2nn(S(=O)(=O)c3cccc(Cl)c3Cl)c3ccccc23)cc1` [Example 13E, 4-(1-(2,3-dichlorophenylsulfonyl)-1H-indazol-3-yl)benzoic acid] is 36-fold lower in EC50: 955 nM for the first, 26.3 nM for the second.

`Cc1noc(C)c1S(=O)(=O)n1nc(-c2ccc(-c3nnn[nH]3)cc2)c2ccccc21` [Example 21D, 4-(3-(4-(1H-tetrazol-5-yl)phenyl)-1H-indazol-1-ylsulfonyl)-3,5-dimethylisoxazole] and `O=S(=O)(c1sc(Cl)cc1Br)n1nc(-c2ccc(-c3nnn[nH]3)cc2)c2ccccc21` [Example 21C, 3-(4-(1H-tetrazol-5-yl)phenyl)-1-(3-bromo-5-chlorothiophen-2-ylsulfonyl)-1H-indazole] are within 1.5-fold of each other in EC50: 741 nM for the first, 617 nM for the second.

Compared with `O=C(O)c1ccc(-c2nn(S(=O)(=O)c3ccccc3OC(F)(F)F)c3ccccc23)cc1` [Example 15A, 4-(1-(2-(trifluoromethoxy)phenylsulfonyl)-1H-indazol-3-yl)benzoic acid], `O=C(O)c1ccc(-c2nn(S(=O)(=O)c3ccccc3Br)c3ccccc23)cc1` [Example 13B, 4-(1-(2-bromophenylsulfonyl)-1H-indazol-3-yl)benzoic acid] is 3.5-fold lower in EC50: 275 nM for the first, 79.4 nM for the second. The second is the more potent here.

First: COC(=O)c1sccc1S(=O)(=O)n1nc(-c2ccc(-c3nnn[nH]3)cc2)c2ccccc21 [Example 21A, methyl 3-(3-(4-(1H-tetrazol-5-yl)phenyl)-1H-indazol-1-ylsulfonyl)thiophene-2-carboxylate]
Second: O=C(O)c1ccc(-c2nn(S(=O)(=O)c3cccc4nonc34)c3ccccc23)cc1 [Example 15D, 4-(1-(benzo[c][1,2,5]oxadiazol-4-ylsulfonyl)-1H-indazol-3-yl)benzoic acid]
The EC50 of the first is 11-fold lower: 389 nM for the first, 4470 nM for the second.

First: Cc1cccc([N+](=O)[O-])c1C(=O)n1nc(-c2ccc(C(=O)O)cc2)c2ccccc21 [Example 11N, 4-(1-(2-methyl-6-nitrobenzoyl)-1H-indazol-3-yl)benzoic acid]
Second: Cc1cccc(C)c1C(=O)n1nc(-c2ccc(C(=O)O)cc2)c2ccccc21 [Example 11I, 4-(1-(2,6-dimethylbenzoyl)-1H-indazol-3-yl)benzoic acid]
The EC50 of the first is 2.8-fold lower: 25.7 nM for the first, 72.4 nM for the second. The first is the more potent here.

Going from `O=C(O)c1ccc(-c2nn(C(=O)C3CCCCC3)c3ccccc23)cc1` [Example 11D, 4-(1-(cyclohexanecarbonyl)-1H-indazol-3-yl)benzoic acid] to `O=C(O)c1ccc(-c2nn(C(=O)c3c(F)cccc3C(F)(F)F)c3ccccc23)cc1` [Example 11F, 4-(1-(2-fluoro-6-(trifluoromethyl)benzoyl)-1H-indazol-3-yl)benzoic acid], the EC50 falls from 525 nM to 39.8 nM (13-fold).

Compared with `Cc1cc(C)cc(S(=O)(=O)n2nc(-c3ccc(C(=O)O)c(C(F)(F)F)c3)c3ccccc32)c1` [Example 18, 4-(1-(3,5-dimethylphenylsulfonyl)-1H-indazol-3-yl)-2-(trifluoromethyl)benzoic acid], `N#Cc1ccccc1S(=O)(=O)n1nc(-c2ccc(C(=O)O)cc2)c2ccccc21` [Example 14, 4-(1-(2-cyanophenylsulfonyl)-1H-indazol-3-yl)benzoic acid] is 1.7-fold lower in EC50: 3310 nM for the first, 1950 nM for the second.

For `O=C(O)c1ccc(-c2nn(C(=O)c3ccccc3C(F)(F)F)c3cccnc23)cc1` [Example 6B, 4-(1-(2-(trifluoromethyl)benzoyl)-1H-pyrazolo[4,3-b]pyridin-3-yl)benzoic acid], the EC50 was 224 nM.

Work on `O=C(O)c1ccc(-c2nn(S(=O)(=O)c3ccccc3C(F)(F)F)c3ccccc23)cc1` [Example 12, 4-(1-(2-(trifluoromethyl)phenylsulfonyl)-1H-indazol-3-yl)benzoic acid] yielded a pEC50 of 7.17.

molecular target: T2, HIS-tagged RORγ-LBD (Homo sapiens, UniProt P51449); assay: TR-FRET assay (Protocol C), purified RORγ-LBD / biotinylated SRC1 LXXLL peptide; format: biochemical; details: purified RORγ-LBD 3 nM, SRC1 peptide 100 nM, overnight at 4° C.
T2 construct: HIS-tagged RORγ-LBD was recombinantly expressed in SF9 cells using a baculovirus expression system; made in house; host or cells: SF9 cells, baculovirus; crude lysate used
T2 sequence (P51449 269-508 limits assumed): T1 sequence (P51449 269-508 limits assumed)
Text: Activation of RORgammaT activity can be measured using e.g. biochemical TR-FRET assay. In such an assay, interaction of cofactor-derived peptides with human RORgammaT-Ligand Binding Domain (LBD) can be measured. The TR-FRET technique is a sensitive biochemical proximity assay that will give information concerning the interaction of a ligand with the LBD, in the presence of cofactor derived peptides (Zhou et al., Methods 25:54-61, 2001).
To identify novel antagonists of RORgammaT, an assay was developed which employs the interaction of RORgammaT with its co-activator peptide SRC1_2. This peptide mimics the recruitment of co-activators to RORgammaT through its interaction with the LXXLL (SEQ ID NO:2) (eg NR box) motifs (Xie et al., J. Immunol. 175: 3800-09, 2005; Kurebayashi et al., Biochem. Biophys. Res. Commun. 315: 919-27, 2004; Jin et al., Mol. Endocrinology 24:923-29, 2010). The assay was run following three slightly different protocols, i.e. Protocol A, Protocol B, and Protocol C, which are described below.
TR-Fret Assay (Protocol C)
HIS-tagged RORγ-LBD protein was expressed in SF9 cells using a baculovirus expression system. The RORγ-LBD protein was purified by glutathione sepharose chromatography. Separately, SF9 cells not expressing any recombinant protein were lysed and the lysate was added to the purified RORγ-LBD at 0.25 μl lysate (from 10,000 SF9 cells)/nM purified protein. The mixture was then diluted in assay buffer (50 mM Tris pH 7.0, 50 mM KCl, 1 mM EDTA, 0.1 mM DTT) to obtain RORγ-LBD final concentration of 3 nM in 384-well assay plate.
Compounds to be tested were injected to the assay plate using Acoustic Droplet Ejection technology by Echo 550 liquid handler (Labcyte, Calif.). A stock of biotinylated-LXXLL (SEQ ID NO:2) peptide from coactivator SRC1 (Biotin-[…]) (SEQ ID NO: 1) was prepared in assay buffer and added to each well (100 nM final concentration). A solution of Europium tagged anti-HIS antibody (1.25 nM final concentration) and APC conjugated streptavidin (8 nM final concentration) were also added to each well.
The final assay mixture was incubated for overnight at 4° C., and the fluorescence signal was measured on an Envision plate reader: (Excitation filter=340 nm; APC emission=665 nm; Europium emission=615 nm; dichroic mirror=D400/D630; delay time=100 μs, integration time=200 μs). IC50 values for test compounds were calculated from the quotient of the fluorescence signal at 665 nm divided by the fluorescence signal at 615 nm.

`O=C(O)c1ccc(-c2nn(C(=O)c3c(Cl)cccc3C(F)(F)F)c3cc(C(=O)N4CC(F)C4)ccc23)cc1` [Example 25T, 4-(1-(2-chloro-6-(trifluoromethyl)benzoyl)-6-(3-fluoroazetidine-1-carbonyl)-1H-indazol-3-yl)benzoic acid] and `O=C(O)c1ccc(-c2nn(C(=O)c3c(Cl)cccc3C(F)(F)F)c3cc(C(=O)N4CCC4)ccc23)cc1` [Example 25W, 4-(6-(azetidine-1-carbonyl)-1-(2-chloro-6-(trifluoromethyl)benzoyl)-1H-indazol-3-yl)benzoic acid] cannot be ordered by IC50: under 50 nM for the first, under 50 nM for the second.

Compared with `O=C(O)c1cc(-c2nn(C(=O)c3c(Cl)cccc3C(F)(F)F)c3cccnc23)ccc1O` [Example 24AL, 5-(1-(2-chloro-6-(trifluoromethyl)-benzoyl)-1H-pyrazolo[4,3-b]pyridin-3-yl)-2-hydroxybenzoic acid], `COCc1ccc2c(-c3ccc(C(=O)O)cc3)nn(C(=O)c3c(Cl)cccc3C(F)(F)F)c2c1` [Example 24BG, 4-(1-(2-chloro-6-(trifluoromethyl)-benzoyl)-6-(methoxymethyl)-1H-indazol-3-yl)benzoic acid] is lower in IC50: over 10000 nM for the first, 50 to 500 nM for the second. The second is the more potent here.

`O=C(O)c1ccc(-c2nn(C(=O)c3c(Cl)cccc3C(F)(F)F)c3cc(C(=O)N4CC(F)(F)C4)ccc23)cc1` [Example 25U, 4-(1-(2-chloro-6-(trifluoromethyl)benzoyl)-6-(3,3-difluoroazetidine-1-carbonyl)-1H-indazol-3-yl)benzoic acid] and `COCCN(C)C(=O)c1ccc2c(-c3ccc(C(=O)O)cc3F)nn(C(=O)c3c(Cl)cccc3C(F)(F)F)c2c1` [Example 25S, 4-(1-(2-chloro-6-(trifluoromethyl)benzoyl)-6-((2-methoxyethyl) (methyl)carbamoyl)-1H-indazol-3-yl)-3-fluorobenzoic acid] cannot be ordered by IC50: under 50 nM for the first, under 50 nM for the second.

Compound `O=C(O)c1c(F)cc(-c2nn(C(=O)c3c(Cl)cccc3C(F)(F)F)c3cccc(F)c23)c(F)c1O` [Example 26G, 4-(1-(2-chloro-6-(trifluoromethyl)benzoyl)-4-fluoro-1H-indazol-3-yl)-3,6-difluoro-2-hydroxybenzoic acid] has an IC50 of under 50 nM.
